Measurements: patent publication US9522907B2, “Anticancer agent and process for the preparation thereof” (COUNCIL OF SCIENTIFIC & INDUSTRIAL RESEARCH, priority 2014, dated 2016)

What was measured:
SR (leukemia cell line) = test: NCI in vitro cytotoxicity, SR; conditions: Homo sapiens
Excerpt: (§1) For these compounds results are expressed as growth inhibition (GI50) values as per NCI protocol.

HT29 = test: NCI in vitro cytotoxicity, HT29; conditions: Homo sapiens, HT-29
Excerpt: as §1

KM12 = test: NCI in vitro cytotoxicity, KM12; conditions: Homo sapiens
Excerpt: as §1

K-562 = test: NCI in vitro cytotoxicity, K-562; conditions: Homo sapiens, K562
Excerpt: as §1

ACHN = test: NCI in vitro cytotoxicity, ACHN; conditions: Homo sapiens
Excerpt: as §1

HOP-62 = test: NCI in vitro cytotoxicity, HOP-62; conditions: Homo sapiens
Excerpt: as §1

HOP-92 = test: NCI in vitro cytotoxicity, HOP-92; conditions: Homo sapiens
Excerpt: as §1

SW-620 = test: NCI in vitro cytotoxicity, SW-620; conditions: Homo sapiens
Excerpt: as §1

SF-295 = test: NCI in vitro cytotoxicity, SF-295; conditions: Homo sapiens
Excerpt: as §1

SF-539 = test: NCI in vitro cytotoxicity, SF-539; conditions: Homo sapiens
Excerpt: as §1

SN 12C = test: NCI in vitro cytotoxicity, SN 12C; conditions: Homo sapiens, SN12C
Excerpt: as §1

DU-145 = test: NCI in vitro cytotoxicity, DU-145; conditions: Homo sapiens
Excerpt: as §1

[1] = test system: BT-549 (breast cancer cell line); test: NCI in vitro cytotoxicity, BT-549; conditions: Homo sapiens
Excerpt: as §1

NCI-H23 = test: NCI in vitro cytotoxicity, NCI-H23; conditions: Homo sapiens
Excerpt: as §1

HCT-116 = test: NCI in vitro cytotoxicity, HCT-116; conditions: Homo sapiens
Excerpt: as §1

IGROV 1 = test: NCI in vitro cytotoxicity, IGROV 1; conditions: Homo sapiens
Excerpt: as §1

OVCAR-4 = test: NCI in vitro cytotoxicity, OVCAR-4; conditions: Homo sapiens
Excerpt: as §1

OVCAR-8 = test: NCI in vitro cytotoxicity, OVCAR-8; conditions: Homo sapiens
Excerpt: as §1

RXF 393 = test: NCI in vitro cytotoxicity, RXF 393; conditions: Homo sapiens
Excerpt: as §1

MALME-3M = test: NCI in vitro cytotoxicity, MALME-3M; conditions: Homo sapiens
Excerpt: as §1

UACC-257 = test: NCI in vitro cytotoxicity, UACC-257; conditions: Homo sapiens
Excerpt: as §1

RPMI-8226 = test: NCI in vitro cytotoxicity, RPMI-8226; conditions: Homo sapiens
Excerpt: as §1

MDA-MB-435 = test: NCI in vitro cytotoxicity, MDA-MB-435; conditions: Homo sapiens
Excerpt: as §1

MDA-MB-468 = test: NCI in vitro cytotoxicity, MDA-MB-468; conditions: Homo sapiens
Excerpt: as §1

MDA-MB-231/ATCC = test: NCI in vitro cytotoxicity, MDA-MB-231/ATCC; conditions: Homo sapiens
Excerpt: as §1

786-0 = test: NCI in vitro cytotoxicity, 786-0; conditions: Homo sapiens
Excerpt: as §1

COLO 205 = test: NCI in vitro cytotoxicity, COLO 205; conditions: Homo sapiens
Excerpt: as §1

NCI-H322M = test: NCI in vitro cytotoxicity, NCI-H322M; conditions: Homo sapiens
Excerpt: as §1

`COc1ccc2[nH]c(-c3ccc(-c4noc(-c5cc(OC)c(OC)c(OC)c5)n4)cc3)nc2c1` [5i, 3-(4-(5-Methoxy-1H-benzo[d]imidazol-2-yl)phenyl)-5-(3,4,5-trimethoxyphenyl)-1,2,4-oxadiazole] gave a GI50 (SR (leukemia cell line)) of 0.71 µM, a GI50 (HT29) of 2.7 µM and a GI50 (KM12) of 7.52 µM. It also gave a GI50 (K-562) of 1.2 µM, a GI50 (ACHN) of 28.2 µM and a GI50 (HOP-62) of 4.44 µM. The GI50 (HOP-92) was 14.3 µM, the GI50 (SW-620) was 5.89 µM and the GI50 (SF-295) was 15 µM. For the same molecule, the GI50 (SF-539) was 2 µM, the GI50 (SN 12C) was 13.2 µM and the GI50 (DU-145) was 9.48 µM. For the same molecule, the GI50 [1] was 0.52 µM, the GI50 (NCI-H23) was 4.1 µM and the GI50 (HCT-116) was 1.9 µM. For the same molecule, the GI50 (IGROV 1) was 26.3 µM, the GI50 (OVCAR-4) was 1.88 µM and the GI50 (OVCAR-8) was 4.93 µM. For the same molecule, the GI50 (RXF 393) was 5.24 µM, the GI50 (MALME-3M) was 1.67 µM and the GI50 (UACC-257) was 17.1 µM. It also gave a GI50 (RPMI-8226) of 6.02 µM, a GI50 (MDA-MB-435) of 4.27 µM and a GI50 (MDA-MB-468) of 6.54 µM. The GI50 (MDA-MB-231/ATCC) was 2.65 µM.
`COc1cc(-c2nc(-c3ccc(-c4nc5cc(F)ccc5[nH]4)cc3)no2)cc(OC)c1OC` [2i, 3-(4-(5-Fluoro-1H-benzo[d]imidazol-2-yl)phenyl)-5-(3,4,5-trimethoxyphenyl)-1,2,4-oxadiazole] was tested, and the GI50 (SR (leukemia cell line)) was 2.98 µM, the GI50 (HT29) was 3.69 µM and the GI50 (KM12) was 3.08 µM. It also gave a GI50 (ACHN) of 3.72 µM, a GI50 (786-0) of 3.61 µM and a GI50 (HOP-62) of 3.21 µM. For the same molecule, the GI50 (HOP-92) was 1.76 µM, the GI50 (SW-620) was 3.61 µM and the GI50 (SF-295) was 2.31 µM. The GI50 (SF-539) was 3.37 µM, the GI50 (SN 12C) was 3.59 µM and the GI50 (DU-145) was 3.96 µM. The GI50 (NCI-H23) was 2.5 µM, the GI50 (HCT-116) was 2.13 µM and the GI50 (IGROV 1) was 3.81 µM. The GI50 (OVCAR-4) was 2.82 µM, the GI50 (OVCAR-8) was 2.36 µM and the GI50 (RXF 393) was 1.9 µM. For the same molecule, the GI50 (COLO 205) was 4.77 µM, the GI50 (MALME-3M) was 2.32 µM and the GI50 (UACC-257) was 3.7 µM. It also gave a GI50 (RPMI-8226) of 1.94 µM, a GI50 (NCI-H322M) of 1.3 µM and a GI50 (MDA-MB-435) of 2.73 µM. For the same molecule, the GI50 (MDA-MB-468) was 3.01 µM and the GI50 (MDA-MB-231/ATCC) was 2.39 µM.
